# US11007212B2, “Microbubble complexes and methods of use” (General Electric Company, priority 2011, dated 2021)
# {CholTEG} = cholesteryl-TEG lipid
# What was measured:
# [1] = target: native HSA (Homo sapiens, UniProt P02768)
# Experimental: Optison™ (GE Healthcare, Chalfont St. Giles, United Kingdom, 10 mg/ml albumin) was centrifuged; the top layer was discarded and the excess albumin solution in the bottom was used for the binding studies. Lyophilized human serum albumin (HSA) powder (Sigma Aldrich, St. Louis Mo.) was dissolved in 1× phosphate buffered saline (PBS) to make a stock solution of 10 mg/mL. Both Optison and native albumin solution dilutions were prepared with 1× PBS. Denatured HSA solution was prepared by heating native ESA solution to 80° C. for 20 minutes.
# The stock solutions of cy3-siRNA and cy3-siRNA-cholesterol, 20 μM were prepared in RNAse free water and stored at −20° C. […]
# All the reactions were loaded onto precast 6% nondenaturing polyacrylamide gels (Invitrogen, Carlsbad, Calif., USA). […] The gels containing either DNA, protein or both were imaged for cy3 fluorescence using a typhoon scanner (Typhoon™9410, GE Healthcare).
# The fluorescence of Cy3 attached to siRNA can be visualized as distinct siRNA bands on the gel.
# The fluorescence intensity of siRNA in each lane was estimated manually by drawing a box around the bands. […] Fluorescence intensities of bound siRNA over a wide range of albumin concentrations were calculated. Relative fluorescence, R was calculated as: R=(Fbound-Ffree)/Ffree (1) […]
# [2] = system: U-87 human glioblastoma cells; assay: Delivery of siRNA to U-87 tumor cells (cell cy3-fluorescence); assay type: cell-based; settings: U-87 cells, 40 pmoles siRNA, 24 hours after sonication, MI>1.3
# Experimental: (§1) MATBIII rat mammary carcinoma and U-87 human glioblastoma cells were cultured in McCoy's 5A Medium (modified) (1×) (Invitrogen, Carlsbad, Calif., USA) and Eagle's Minimum Essential Medium (EMEM) (ATCC, Manassas, Va.) respectively. Both the media solutions were supplemented with 10% heat deactivated fetal bovine serum (FBS) (Fisher Scientific, Springfield, N.J.) and 1% penicillin-streptomycin (Sigma Aldrich, St Louis, Mo.). The cells were maintained at 37° C. in a humidified atmosphere with 5% CO2.
# (§2) MATB-III and U-87 cells were grown in 10 mL capacity Opticell units (Nalge Nunc International, Rochester, N.Y.) to 90% confluence. The media in OptiCell was replaced with 10 mL fresh media containing 40 pmoles of either cy3-siRNA or cholesterol-siRNA. […] After incubation, the cells were imaged using a fluorescence microscope (Zeiss Axio Imager.Z1, Carl Zeiss). […] In the region of interest (ROI) in the fluorescent images, cell fluorescence was measured and the mean values of cell fluorescence were calculated. ImageJ was used to process the images and calculate fluorescence intensities.
# (§3) The data are reported as mean+1.0 standard error (SE) for N=4. The statistical significance of the differences between the groups was evaluated using two-sample t-test and the statistical analyses were carried out using Minitab® 12 (Minitab Inc, State College, Pa. USA).
# [3] = target: T1, Optison (Homo sapiens, UniProt P02768); assay: Gel shift assay, binding of siRNA to Optison albumin solution
# T1 construct: purchased GE Healthcare, Chalfont St. Giles, United Kingdom
# T1 sequence (P02768 25-609): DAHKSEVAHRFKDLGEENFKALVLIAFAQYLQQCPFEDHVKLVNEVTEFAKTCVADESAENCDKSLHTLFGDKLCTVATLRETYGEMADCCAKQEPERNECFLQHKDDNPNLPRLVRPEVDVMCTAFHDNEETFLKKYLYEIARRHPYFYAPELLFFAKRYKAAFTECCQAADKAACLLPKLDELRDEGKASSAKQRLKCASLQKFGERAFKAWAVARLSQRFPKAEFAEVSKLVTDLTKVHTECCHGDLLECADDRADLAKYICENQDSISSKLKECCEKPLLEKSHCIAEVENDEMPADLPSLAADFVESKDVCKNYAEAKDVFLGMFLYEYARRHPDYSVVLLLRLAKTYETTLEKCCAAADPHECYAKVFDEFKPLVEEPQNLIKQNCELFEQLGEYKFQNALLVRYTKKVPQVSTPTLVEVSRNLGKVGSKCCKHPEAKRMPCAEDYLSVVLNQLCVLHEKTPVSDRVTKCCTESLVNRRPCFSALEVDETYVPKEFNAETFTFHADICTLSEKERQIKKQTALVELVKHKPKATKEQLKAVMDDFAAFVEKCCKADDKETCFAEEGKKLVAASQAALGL
# [4] = system: MATBIII rat mammary carcinoma cells; assay: Delivery of siRNA to MATBIII cells, Optison/ultrasound versus RNAifect; assay type: cell-based; settings: 24 hours
# Experimental: as §1, §2, §3
# [5] = system: denatured HSA; assay: Gel shift assay, binding of siRNA to denatured HSA; parameters: species or system human; settings: same amount of denatured HSA, compared with native HSA and Optison
# Description: The reaction buffer was 1× PBS, pH 7.4.
# Sequence of native HSA (P02768 25-609): as above
substance,measurement,setting,value
"cholesterol-siRNA: siRNA for VEGF silencing, 5'-Cy3 labelled, cholesteryl TEG lipid at 3' of sense strand (SEQ ID NO: 1 and 2) (sense GCAUUUGUUUGUCCAAGAUUU; antisense AAAUCUUGGACAAACAAAUGC; sense: 3' {CholTEG}, sugars by position and backbone not given here; antisense: chemistry not given here; 5'-Cy3 label, further chemistry not fully specified)",Kd,[1],6.4 µM
same,Binding to native HSA in gel shift assay,[1]; 0 to 50 pmoles albumin,bound
same,"Increase in average cell fluorescence, Optison/ultrasound treated versus untreated cells",[2],53%
same,Binding to Optison solution in gel shift assay,[3]; 0 to 50 pmoles albumin,bound
same,Kd,"[3]; binding to Optison, gel shift, non-linear fit, read-out: Dissociation constant, kd",7.16 µM
same,Amount bound to Optison solution compared with native HSA,"[3]; low albumin concentration, 0 to 15 μM",higher
same,"Average cell fluorescence, Optison/ultrasound delivery versus RNAifect",[4],no significant difference
same,Binding to denatured HSA in gel shift assay,[5],significantly decreased
